Tests used:
Daudi cells = assay: Intraperitoneal lavage model: CFSE-labelled Daudi cells in SCID mice; assay type: in vivo; conditions: I-17 1, 10, 30 mg/kg + IVIG 10 mg/mouse sub-Q, 16-18 hours (FIG. 9)
Description: On day 0 animals were weighed and randomized. Mice were assigned to different groups and treated as described below. CFSE labelled Daudi cells were prepared as follows:
• Reagents used: PBS (Sterile) • Quenching Buffer PBS+10% FBS • RPMI (no additives) no P/S; no FBS • Invitrogen—CellTrace CFSE Cell Proliferation Kit, for Flow Cytometry (Cat#C34570) • Warm the sterile PBS and all other media to 37 degree Celsius before use for all of the following procedures listed below. […]
After 16-18 hours the mice were sacrificed via CO2 asphyxiation and had their peritoneal cavity flushed with 5 mls of PBS with 1% BSA. Samples were processed and analyzed using IP Lavage Processing is described in 00765. Samples were evaluated for tumor cell counts. […]

SUDHL-4 cells = assay: CIML NK cell SUDHL-4 cell ADCC assay; assay type: cell-based
Description: CIML NK cell SUDHL-4 cell ADCC assay: SUDHL-4 cells were labelled with CFSE and re-suspended in XVIVO15 media containing 20% Human serum. Cells were aliquoted at 10,000 cells/well, 18 ul/well of 96 well V-bottom plates. NK cells (in PBS 5% HSA) were added at a 9:1 ratio (90,000 NK cell per well) in an equal volume (18 ul per well). Co-cultures were incubated overnight at 37° C. in a 5% CO2 atmosphere. Next day, cells were washed, and stained with the following reagents: Near Infra-Red Fixable viability dye (Thermo Fisher), CD3 FITC (Biolegend) and CD56 PE (Biolegend). Percentages of Dead SUDHL-4 cells were calculated by gating on CFSE+ cells that are also positive for Near Infrared Live Dead dye.
Baseline activity was assessed by using NK cells that have not been stimulated with cytokine cocktail (non-CIML NK cells). FIG. 6 represents frequencies of dead SUDHL-4 cells in NK-SUDHL-4 cell co-cultures after 18 hours of incubation.

## CCCCC[C@@H]1NC(=O)[C@H](CCCNC(=N)N)NC(=O)[C@H](C)NC(=O)CSC[C@@H](C(=O)NCCOCCOCCOCCOCCOCCOCCn2nnc3c2CCC2C(CC3)C2COC(=O)N2CCC(C(=O)NCC(=O)N[C@H](CCC(=O)N[C@H](CCC(=O)N[C@H](CCC(=O)O)C(=O)N[C@H](CCC(=O)N[C@H](CCC(=O)NCC(=O)NCC(=O)N[C@@H](CC(=O)O)C(=O)N[C@H]3CSSC[C@@H](C(=O)N[C@H](C(=O)O)[C@@H](C)O)NC(=O)[C@H](Cc4c[nH]c5ccccc45)NC(=O)[C@H](C(C)C)NC(=O)[C@H](CC(C)C)NC(=O)[C@H](CCC(=O)O)NC(=O)CNC(=O)[C@H](CC(C)C)NC(=O)[C@H](Cc4c[nH]cn4)NC(=O)[C@H](Cc4c[nH]c5ccccc45)NC(=O)[C@H](C)NC3=O)C(=O)O)C(=O)O)C(=O)O)C(=O)O)CC2)NC(=O)[C@H](CC(=O)O)NC(=O)[C@H](CCCCC)NC(=O)[C@H](Cc2ccc(-c3ccccc3)cc2)NC(=O)[C@H](CC(C)C)NC(=O)[C@H](C(C)C)NC(=O)CNC(=O)[C@H](CC(=O)O)NC(=O)[C@H](Cc2c[nH]cn2)NC(=O)[C@H](Cc2ccc(O)cc2)NC1=O (stereo partly drawn) [I-17]
Daudi cells
  number of CD38 expressing Daudi cells in intraperitoneal cavity: can effectively reduce the number of target cells
SUDHL-4 cells; CIML NK cells in combination with I-17, SUDHL-4 cells, 18 hours
  increase in killing over background (DMSO-treated control): 66%
SUDHL-4 cells; FIG. 6
  killing of SUDHL-4 cells in NK-SUDHL-4 co-cultures: can effectively kill cancer cells
